Measurements from patent US20260049072A1, “HETEROCYCLIC COMPOUND FOR INDUCING DEGRADATION OF MUTANT KRAS PROTEIN” (Astellas Pharma Inc., priority 2022, published 2026).
pIC50: −log10 of the molar value. Where two headings read alike, the source gives them in different places.

Experiments:
RAS G12V = target: T1, RAS G12V (Homo sapiens, UniProt P01116, G12V); experiment: RAS G12V degradation activity, Cell ELISA, PA-TU-8902; assay type: cell-based; conditions: PA-TU-8902 cells, 24 hours, 100% = Example compound 17 at 1 μM; read-out: DC50 (RAS G12V 50% degradation value)
T1 construct: host or cells: PA-TU-8902 human pancreatic cancer cells
Description: Test Example 1-1: Evaluation of RAS G12V Degradation Activity on Human KRAS G12V Mutant-Positive Pancreatic Cancer Line PA-TU-8902
The RAS G12V degradation activities of subject compounds were evaluated by measuring the expression levels of RAS G12V by a Cell ELISA method.
PA-TU-8902 cells (DSMZ, ACC 179) were seeded at 36 μL per well on a 384-well plate (from Greiner bio-one) to give 1.5×10^4 cells per well. As for the cell culture conditions, DMEM medium (from Sigma-Aldrich) containing 10% fetal bovine serum (from Cytiva) was used in the presence of 5% CO2 at 37° C.
The next day, the subject compounds (10 points having final concentrations in the range of 3 μM to 0.1 nM), Example compound 17 of a final concentration of 1 μM as a positive control and dimethyl sulfoxide (DMSO), which was the solvent for the subject compounds, as a negative control were diluted 100-fold with a fresh medium and were each added at 4 μL per well, followed by culturing for 24 hours.
The next day, the culture supernatant was removed, and a 4% paraformaldehyde phosphate buffer solution (from FUJIFILM Wako) was added at 20 μL per well. The plate was allowed to stand for 30 minutes at room temperature to thus immobilize the cells. Then, the supernatant was removed, and 0.1% Triton X-100 (from Amersham Biosciences)-containing Phosphate buffered saline (PBS) was added at 20 μL per well. After allowing the plate to stand at room temperature for 10 minutes, the supernatant was removed, and the wells were washed twice in total by adding PBS at 25 μL per well and removing the supernatant. The washing operations below were performed in the same manner. Next, the supernatant was removed, and 0.5% sodium dodecyl sulfate (SDS; from ThermoFisher Scientific)-containing PBS was added at 20 μL per well. After allowing the plate to stand at room temperature for 10 minutes, the plate was centrifuged to remove the supernatant. After washing with PBS, the supernatant was removed by centrifugation, and a blocking solution (PVDF Blocking Reagent for Can Get Signal; from TOYOBO) was added at 20 μL per well. After allowing the plate to stand for 30 minutes at room temperature, the supernatant was removed by centrifugation, and a solution obtained by diluting an anti-Ras (G12V Mutant Specific) antibody (Ras (G12V Mutant Specific) (D2H12) Rabbit mAb; from Cell Signaling Technology; 500-fold dilution) and an anti-3-actin antibody (Anti-beta Actin antibody; from Abcam; 5,000-fold dilution) with Can Get Signal Solution 2 (from TOYOBO) was added at 15 μL per well as primary antibodies. The plate was allowed to stand overnight at 4° C.
The next day, the supernatant was removed by centrifugation, and the plate was washed with PBS. The supernatant was removed by centrifugation, and a solution obtained by diluting an anti-rabbit IgG antibody (IRDye 800CW Goat anti-Rabbit IgG; from LI-COR Biosciences) and an anti-mouse IgG antibody (IRDye 680RD Donkey anti-Mouse IgG; from LI-COR Biosciences) 1,000-fold with Can Get Signal Solution 2 was added at 15 μL per well as secondary antibodies. After allowing the plate to stand at room temperature for an hour, the supernatant was removed by centrifugation, and the plate was washed with PBS. After removing the supernatant, the plate was dried as it was with air at room temperature for two hours or more, and the 700-nm and 800-nm fluorescent signals were measured with Aerius (from LI-COR Biosciences).
With the RAS G12V signaling value at the time of addition of DMSO corrected with the signaling value of 3-actin taken as 0% and with the RAS G12V signaling value at the time of addition of Example compound 17 of a final concentration of 1 μM taken as 100%, the RAS G12V degradation rates were calculated. The 50% degradation values (DC50) were calculated by Sigmoid-Emax model nonlinear regression analysis.

PA-TU-8902 cells = experiment: Non-anchorage-dependent cell growth inhibition (spheroid 3D culture), PA-TU-8902; assay type: cell-based, human; conditions: Homo sapiens, PaTu 8902, 144 h, read-out: PA-TU-8902 IC50
How it was run: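 Human pancreatic lines (PA-TU-8902 KRAS G12V, AsPC-1 G12D, MIA PaCa-2 G12C) grown as spheroids at 5×10^2 cells/well in low-adhesion round-bottom plates; MIA PaCa-2 in RPMI-1640 with 10% FBS. Compounds added next day (6-9 points, 3 μM to 0.3 nM final) for six days at 37 °C, 5% CO2. CellTiter-Glo luminescence, IC50 by Sigmoid-Emax regression versus DMSO and cell-free controls.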

MIA PaCa-2 cells = experiment: Non-anchorage-dependent cell growth inhibition (spheroid 3D culture), MIA PaCa-2; assay type: cell-based; conditions: Homo sapiens, MIA PaCa-2, 144 h, read-out: MIA PaCa-2 IC50
Description: Test Example 3: Evaluation of Non-Anchorage-Dependent Cell Growth Inhibitory Activity on Human KRAS G12V Mutant-Positive Pancreatic Cancer Line PA-TU-8902, Human KRAS G12D Mutant-Positive Pancreatic Cancer Line AsPC-1 or Human KRAS G12C Mutant-Positive Pancreatic Cancer Line MIA PaCa-2
The non-anchorage-dependent cell growth inhibitory activities of subject compounds were evaluated by spheroid 3D cell culture.
PA-TU-8902 cells, AsPC-1 cells or MIA PaCa-2 cells (RIKEN BRC, RCB2094) were seeded at 36 µL/well on a low-cell-adhesive round bottom 384-well plate (Prime Surface: from Sumitomo Bakelite) to give 5×10^2 cells per well. The PA-TU-8902 cells were under the same conditions as in Test Example 1-1, and the AsPC-1 cells were under the same conditions as in Test Example 1-2. For the MIA PaCa-2 cells, RPMI-1640 medium containing 10% fetal bovine serum was used in the presence of 5% CO2 at 37° C.
The next day, the subject compounds (6-9 points having final concentrations in the range of 3 μM to 0.3 nM) and DMSO, which was the solvent for the subject compounds, as a negative control were diluted 100-fold with a fresh medium and were each added at 4 μL per well. After culturing in the presence of 5% CO2 at 37° C. for six days, CellTiter-Glo 2.0 (from Promega) was added at 20 μL per well. After stirring with a plate mixer (from FINEPCR) at normal temperature for an hour, the luminescent signals were measured with ARVO X3 (from PerkinElmer).
With the signaling value in treatment with DMSO taken as 0% inhibition and with the signaling value in the medium alone without cells taken as 100% inhibition, the 50% inhibition values (IC50) were calculated by Sigmoid-Emax model nonlinear regression analysis.

[1] = KRAS G12V mutant-positive, 3D spheroid, six days, CellTiter-Glo 2.0
[2] = KRAS G12C mutant-positive, 3D spheroid, six days, CellTiter-Glo 2.0

T1 sequence (P01116 1-188 isoform P01116-2 G12V): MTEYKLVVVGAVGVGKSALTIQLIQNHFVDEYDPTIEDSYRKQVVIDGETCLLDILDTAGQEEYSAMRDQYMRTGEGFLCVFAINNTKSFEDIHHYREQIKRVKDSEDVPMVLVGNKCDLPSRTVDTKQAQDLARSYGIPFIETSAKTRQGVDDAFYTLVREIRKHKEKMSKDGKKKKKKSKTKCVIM

SMILES	DC50 (RAS G12V) [nM]	pIC50 (MIA PaCa-2 cells; [2])	pIC50 (PA-TU-8902 cells; [1])	pIC50 (PA-TU-8902 cells)	pIC50 (MIA PaCa-2 cells)
Cc1ncsc1-c1ccc([C@H](CO)NC(=O)[C@@H]2C[C@@H](O)CN2C(=O)[C@H](C(C)C)n2cc(-c3ccc(COc4c(-c5c(C)c(F)cc6[nH]ncc56)c(C5CC5)cc5c(NC6CN(c7ncccn7)C6)nc(OC6CCOCC6)nc45)cc3)nn2)cc1 [Example 15, (4R)-1-[(2S)-2-{4-[4-({[(7M)-6-cyclopropyl-7-(6-fluoro-5-methyl-1H-indazol-4-yl)-2-[(oxan-4-yl)oxy]-4-{[1-(pyrimidin-2-yl)azetidin-3-yl]amino}quinazolin-8-yl]oxy}methyl)phenyl]-1H-1,2,3-triazol-1-yl}-3-methylbutanoyl]-4-hydroxy-N-{(1R)-2-hydroxy-1-[4-(4-methyl-1,3-thiazol-5-yl)phenyl]ethyl}-L-prolinamide]	89	8.22	6.79		
CO[C@@H](C)COc1nc(OC2CN(C(=O)NCCN(C)C)C2)c2cc(C3CC3)c(-c3c(C)c(F)cc4[nH]ncc34)c(OCc3ccc(C(=O)N[C@H](C(=O)N4C[C@H](O)C[C@H]4C(=O)N[C@@H](CO)c4ccc(-c5scnc5C)cc4)C(C)C)cc3)c2n1 [Example 40, N-{4-[({(7M)-6-cyclopropyl-4-[(1-{[2-(dimethylamino)ethyl]carbamoyl}azetidin-3-yl)oxy]-7-(6-fluoro-5-methyl-1H-indazol-4-yl)-2-[(2S)-2-methoxypropoxy]quinazolin-8-yl}oxy)methyl]benzoyl}-L-valyl-(4R)-4-hydroxy-N-{(1R)-2-hydroxy-1-[4-(4-methyl-1,3-thiazol-5-yl)phenyl]ethyl}-L-prolinamide]	76			7.00	7.70
CO[C@@H](C)COc1cc(OC2CN(C(=O)CCCN(C)C)C2)c2cc(C3CC3)c(-c3c(C)c(F)cc4[nH]ncc34)c(OCc3ccc(-c4cn([C@H](C(=O)N5C[C@H](O)C[C@H]5C(=O)N[C@@H](CO)c5ccc(-n6cncn6)cc5)C(C)C)nn4)cc3)c2n1 (atropisomer, axis not shown; (M)) [Example 41, (4R)-1-[(2S)-2-(4-{4-[({(7M)-6-cyclopropyl-4-({1-[4-(dimethylamino)butanoyl]azetidin-3-yl}oxy)-7-(6-fluoro-5-methyl-1H-indazol-4-yl)-2-[(2S)-2-methoxypropoxy]quinolin-8-yl}oxy)methyl]phenyl}-1H-1,2,3-triazol-1-yl)-3-methylbutanoyl]-4-hydroxy-N-{(1R)-2-hydroxy-1-[4-(1H-1,2,4-triazol-1-yl)phenyl]ethyl}-L-prolinamide]	30	7.64	7.28		

Now those with a lower DC50 (RAS G12V), led by results:

DC50 (RAS G12V) [nM]	pIC50 (MIA PaCa-2 cells; [2])	SMILES	pIC50 (PA-TU-8902 cells; [1])	pIC50 (PA-TU-8902 cells)	pIC50 (MIA PaCa-2 cells)
14	7.80	CO[C@@H](C)COc1nc(NC2CN(C(=O)N3CC(CN(C)C)C3)C2)c2cc(C3CC3)c(-c3c(C)c(F)cc4[nH]ncc34)c(OCc3ccc(-c4cn([C@H](C(=O)N5C[C@H](O)C[C@H]5C(=O)N[C@@H](CO)c5ccc(-c6scnc6C)cc5)C(C)C)nn4)cc3)c2n1 (atropisomer, axis not shown) [Example 25]	7.39		
22	8.15	CO[C@@H](C)COc1cc(OC2CN(C(=O)N3CC(CN(C)C)C3)C2)c2cc(C3CC3)c(-c3c(C)c(F)cc4[nH]ncc34)c(OCc3ccc(-c4cn([C@H](C(=O)N5C[C@H](O)C[C@H]5C(=O)N[C@@H](CO)c5ccc(-c6ocnc6C)cc5)C(C)C)nn4)cc3)c2n1 (atropisomer, axis not shown; (M)) [Example 6, (4R)-1-[(2S)-2-(4-{4-[({(7M)-6-cyclopropyl-4-[(1-{3-[(dimethylamino)methyl]azetidine-1-carbonyl}azetidin-3-yl)oxy]-7-(6-fluoro-5-methyl-1H-indazol-4-yl)-2-[(2S)-2-methoxypropoxy]quinolin-8-yl}oxy)methyl]phenyl}-1H-1,2,3-triazol-1-yl)-3-methylbutanoyl]-4-hydroxy-N-{(1R)-2-hydroxy-1-[4-(4-methyl-1,3-oxazol-5-yl)phenyl]ethyl}-L-prolinamide]	7.49		
19	8.15	CO[C@@H](C)COc1nc(NC2CN(C(=S)N3CC(CN(C)C)C3)C2)c2cc(C3CC3)c(-c3c(C)c(F)cc4[nH]ncc34)c(OCc3ccc(-c4cn([C@H](C(=O)N5C[C@H](O)C[C@H]5C(=O)N[C@@H](CO)c5ccc(-n6cncn6)cc5)C(C)C)nn4)cc3)c2n1 (atropisomer, axis not shown) [Example 26]	7.39		
26	7.57	CO[C@@H](C)COc1nc(N(C)[C@H]2CCN(C(=O)NCCN(C)C)C2)c2cc(C3CC3)c(-c3c(C)c(F)cc4[nH]ncc34)c(OCc3ccc(-c4cn([C@H](C(=O)N5C[C@H](O)C[C@H]5C(=O)N[C@@H](CO)c5ccc(-c6scnc6C)cc5)C(C)C)nn4)cc3)c2n1 (atropisomer, axis not shown) [Example 19]	7.24		
